Measured values reported in PMC3919579, “Timing of GTP binding and hydrolysis by translation termination factor RF3” (Nucleic Acids Research, 2013).

Each compound was assayed against T1, RF3 (Escherichia coli, UniProt P0A7I4) (assay: competition titration against mantGDP, FRET). Conditions: pH 7.5, 37 °C, 7 mM MgCl2; competition with purified RF3-mantGDP.
T1 construct: gene prfC; free RF3, N-terminal His-tag, pET30a, BL21(DE3), Ni-NTA and Resource Q
Format: binding

T1 sequence (P0A7I4 2-529): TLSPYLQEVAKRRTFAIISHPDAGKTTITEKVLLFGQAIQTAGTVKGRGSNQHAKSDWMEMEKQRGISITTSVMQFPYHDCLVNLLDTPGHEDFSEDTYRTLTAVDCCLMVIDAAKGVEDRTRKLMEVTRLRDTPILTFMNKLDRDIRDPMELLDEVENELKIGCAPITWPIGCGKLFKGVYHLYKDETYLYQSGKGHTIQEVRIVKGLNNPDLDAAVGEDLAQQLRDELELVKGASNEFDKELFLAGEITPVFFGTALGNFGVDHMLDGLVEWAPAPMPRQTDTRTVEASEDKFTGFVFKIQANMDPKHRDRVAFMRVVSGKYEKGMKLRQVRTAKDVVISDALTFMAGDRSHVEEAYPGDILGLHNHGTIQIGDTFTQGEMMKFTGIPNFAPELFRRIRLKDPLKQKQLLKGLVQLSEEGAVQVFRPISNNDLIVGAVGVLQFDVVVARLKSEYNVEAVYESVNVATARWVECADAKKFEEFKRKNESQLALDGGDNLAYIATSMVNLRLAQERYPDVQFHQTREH

| SMILES | ratio of added nucleotide to mantGDP at half-saturation [fold] |
| --- | --- |
| Nc1nc2c(ncn2[C@@H]2O[C@H](COP(=O)(O)OP(=O)(O)CP(=O)(O)O)[C@@H](O)[C@H]2O)c(=O)[nH]1 [GDPCP] | 60 |
| Nc1nc2c(ncn2[C@@H]2O[C@H](COP(=O)(O)OP(=O)(O)NP(=O)(O)O)[C@@H](O)[C@H]2O)c(=O)[nH]1 [GDPNP] | 40 |
| Nc1nc2c(ncn2[C@@H]2O[C@H](COP(=O)(O)OP(=O)(O)O)[C@@H](O)[C@H]2O)c(=O)[nH]1 [GDP] | 1 |
| Nc1nc2c(ncn2[C@@H]2O[C@H](COP(=O)(O)OP(=O)(O)OP(=O)(O)O)[C@@H](O)[C@H]2O)c(=O)[nH]1 [GTP] | 3 |
